Measured values published in PubChem BioAssay AID1919005 (Molecular Pharmacology Branch, DTP, NCI, 2023).

Test system: 855422-203-R-J1-PDC complex spheroid growth
Experiment: Anticancer human tumor 855422-203-R-J1-PDC patient-derived bladder carcinoma cell line growth inhibition [AhR]
Details: for IC50: curve of first compound; for viability, T/C: stronger effect = lower value
Procedure, shortened: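 Spheroids combined tumor cells with HUVEC endothelial cells and human MSCs as stroma. AhR antagonists were paired with standard or investigational drugs, each dosed in half-log steps down from near clinical Cmax, or from 10 microM where Cmax was unknown.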

[1] = second compound 0.1 µM, first compound 0.0316 µM
[2] = second compound 0.1 µM, first compound 0.1 µM
[3] = second compound 0.316 µM, first compound 0.0316 µM
[4] = second compound 0.316 µM, first compound 0.1 µM
[5] = second compound 1 µM, first compound 0.0316 µM
[6] = second compound 1 µM, first compound 0.1 µM
[7] = second compound 3.16 µM, first compound 0.0316 µM
[8] = second compound 3.16 µM, first compound 0.1 µM
[9] = second compound 10 µM, first compound 0.0316 µM
[10] = second compound 10 µM, first compound 0.1 µM
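Also: spheroids exposed to agents for seven days before readout.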
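For viability, T/C in this document: percent of DMSO vehicle control luminescence viability.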

Q: How did the IC50 (second compound 0.1 µM) turn out when CC1(C)CCC(CN2CCN(c3ccc(C(=O)NS(=O)(=O)c4ccc(NCC5CCOCC5)c([N+](=O)[O-])c4)c(Oc4cnc5[nH]ccc5c4)c3)CC2)=C(c2ccc(Cl)cc2)C1 + Cc1ccccc1N=Nc1ccc(NC(=O)c2ccnn2C)c(C)c1 was run?
A: The IC50 was 6.82 µM.

Q: And the IC50 (second compound 0.316 µM)?
A: Its IC50 is 6.89 µM.

Q: What about the IC50 (second compound 1 µM) of the same compound?
A: The IC50 was 7.01 µM.

Q: What about the IC50 (second compound 3.16 µM) of the same compound?
A: The IC50 was 6.66 µM.

Q: What about the IC50 (second compound 10 µM) of the same compound?
A: Its IC50 is 4.83 µM.

Q: And the viability, T/C [1]?
A: The viability, T/C was 102%.

Q: What about the viability, T/C [2] of the same compound?
A: Its viability, T/C is 114%.

Q: What about the viability, T/C (second compound 0.1 µM, first compound 0.316 µM) of the same compound?
A: Its viability, T/C is 101%.

Q: What about the viability, T/C (second compound 0.1 µM, first compound 1 µM) of the same compound?
A: The viability, T/C was 107%.

Q: What about the viability, T/C (second compound 0.1 µM, first compound 3.16 µM) of the same compound?
A: Its viability, T/C is 110%.

Q: What about the viability, T/C (second compound 0.1 µM, first compound 10 µM) of the same compound?
A: Its viability, T/C is 21.8%.

Q: And the viability, T/C [3]?
A: Its viability, T/C is 105%.

Q: And the viability, T/C [4]?
A: The viability, T/C was 106%.

Q: What about the viability, T/C (second compound 0.316 µM, first compound 0.316 µM) of the same compound?
A: The viability, T/C was 102%.

Q: And the viability, T/C (second compound 0.316 µM, first compound 1 µM)?
A: Its viability, T/C is 114%.

Q: And the viability, T/C (second compound 0.316 µM, first compound 3.16 µM)?
A: The viability, T/C was 106%.

Q: What about the viability, T/C (second compound 0.316 µM, first compound 10 µM) of the same compound?
A: The viability, T/C was 23.1%.

Q: What about the viability, T/C [5] of the same compound?
A: The viability, T/C was 108%.

Q: And the viability, T/C [6]?
A: The viability, T/C was 116%.

Q: And the viability, T/C (second compound 1 µM, first compound 0.316 µM)?
A: The viability, T/C was 102%.

Q: What about the viability, T/C (second compound 1 µM, first compound 1 µM) of the same compound?
A: Its viability, T/C is 106%.

Q: What about the viability, T/C (second compound 1 µM, first compound 3.16 µM) of the same compound?
A: Its viability, T/C is 116%.

Q: And the viability, T/C (second compound 1 µM, first compound 10 µM)?
A: The viability, T/C was 23.4%.

Q: And the viability, T/C [7]?
A: Its viability, T/C is 95.8%.

Q: What about the viability, T/C [8] of the same compound?
A: Its viability, T/C is 102%.

Q: And the viability, T/C (second compound 3.16 µM, first compound 0.316 µM)?
A: Its viability, T/C is 105%.

Q: And the viability, T/C (second compound 3.16 µM, first compound 1 µM)?
A: The viability, T/C was 105%.

Q: What about the viability, T/C (second compound 3.16 µM, first compound 3.16 µM) of the same compound?
A: Its viability, T/C is 98.2%.

Q: What about the viability, T/C (second compound 3.16 µM, first compound 10 µM) of the same compound?
A: Its viability, T/C is 23.6%.

Q: And the viability, T/C [9]?
A: Its viability, T/C is 94.1%.

Q: And the viability, T/C [10]?
A: The viability, T/C was 83.5%.

Q: What about the viability, T/C (second compound 10 µM, first compound 0.316 µM) of the same compound?
A: The viability, T/C was 89%.

Q: What about the viability, T/C (second compound 10 µM, first compound 1 µM) of the same compound?
A: Its viability, T/C is 85.6%.

Q: What about the viability, T/C (second compound 10 µM, first compound 3.16 µM) of the same compound?
A: Its viability, T/C is 62.9%.

Q: What about the viability, T/C (second compound 10 µM, first compound 10 µM) of the same compound?
A: Its viability, T/C is 27.7%.

Q: Which results are given for CCN(c1cc(-c2ccc(CN3CCOCC3)cc2)cc(C(=O)NCc2c(C)cc(C)[nH]c2=O)c1C)C1CCOCC1 + Cc1ccccc1N=Nc1ccc(NC(=O)c2ccnn2C)c(C)c1?
A: IC50 (second compound 0.1 µM): > 3 µM; IC50 (second compound 0.316 µM): > 3 µM; IC50 (second compound 1 µM): > 3 µM; IC50 (second compound 3.16 µM): > 3 µM; IC50 (second compound 10 µM): > 3 µM; viability, T/C (second compound 0.1 µM, first compound 0.00949 µM): 105%; viability, T/C (second compound 0.1 µM, first compound 0.03 µM): 93.4%; viability, T/C (second compound 0.1 µM, first compound 0.0949 µM): 93.2%; viability, T/C (second compound 0.1 µM, first compound 0.3 µM): 91.2%; viability, T/C (second compound 0.1 µM, first compound 0.949 µM): 91.1%; viability, T/C (second compound 0.1 µM, first compound 3 µM): 87.5%; viability, T/C (second compound 0.316 µM, first compound 0.00949 µM): 93.7%; viability, T/C (second compound 0.316 µM, first compound 0.03 µM): 93.2%; viability, T/C (second compound 0.316 µM, first compound 0.0949 µM): 92.6%; viability, T/C (second compound 0.316 µM, first compound 0.3 µM): 97.3%; viability, T/C (second compound 0.316 µM, first compound 0.949 µM): 87%; viability, T/C (second compound 0.316 µM, first compound 3 µM): 85.3%; viability, T/C (second compound 1 µM, first compound 0.00949 µM): 105%; viability, T/C (second compound 1 µM, first compound 0.03 µM): 98.8%; viability, T/C (second compound 1 µM, first compound 0.0949 µM): 95.6%; viability, T/C (second compound 1 µM, first compound 0.3 µM): 96.3%; viability, T/C (second compound 1 µM, first compound 0.949 µM): 92.8%; viability, T/C (second compound 1 µM, first compound 3 µM): 85.3%; viability, T/C (second compound 3.16 µM, first compound 0.00949 µM): 91.3%; viability, T/C (second compound 3.16 µM, first compound 0.03 µM): 90.2%; viability, T/C (second compound 3.16 µM, first compound 0.0949 µM): 84.3%; viability, T/C (second compound 3.16 µM, first compound 0.3 µM): 87.1%; viability, T/C (second compound 3.16 µM, first compound 0.949 µM): 83.6%; viability, T/C (second compound 3.16 µM, first compound 3 µM): 82.3%; viability, T/C (second compound 10 µM, first compound 0.00949 µM): 84.2%; viability, T/C (second compound 10 µM, first compound 0.03 µM): 76.8%; viability, T/C (second compound 10 µM, first compound 0.0949 µM): 79.8%; viability, T/C (second compound 10 µM, first compound 0.3 µM): 77.8%; viability, T/C (second compound 10 µM, first compound 0.949 µM): 71.3%; viability, T/C (second compound 10 µM, first compound 3 µM): 72.4%

Q: Which results are given for Cn1ncnc1C1c2n[nH]c(=O)c3cc(F)cc(c23)NC1c1ccc(F)cc1 (stereo not given) + Cc1ccccc1N=Nc1ccc(NC(=O)c2ccnn2C)c(C)c1?
A: IC50 (second compound 0.1 µM): > 0.1 µM; IC50 (second compound 0.316 µM): > 0.1 µM; IC50 (second compound 1 µM): > 0.1 µM; IC50 (second compound 3.16 µM): > 0.1 µM; IC50 (second compound 10 µM): > 0.1 µM; viability, T/C (second compound 0.1 µM, first compound 0.000316 µM): 102%; viability, T/C (second compound 0.1 µM, first compound 0.001 µM): 96%; viability, T/C (second compound 0.1 µM, first compound 0.00316 µM): 102%; viability, T/C (second compound 0.1 µM, first compound 0.01 µM): 100%; viability, T/C [1]: 93.8%; viability, T/C [2]: 100%; viability, T/C (second compound 0.316 µM, first compound 0.000316 µM): 106%; viability, T/C (second compound 0.316 µM, first compound 0.001 µM): 96.4%; viability, T/C (second compound 0.316 µM, first compound 0.00316 µM): 95.7%; viability, T/C (second compound 0.316 µM, first compound 0.01 µM): 96.1%; viability, T/C [3]: 92.6%; viability, T/C [4]: 90%; viability, T/C (second compound 1 µM, first compound 0.000316 µM): 104%; viability, T/C (second compound 1 µM, first compound 0.001 µM): 105%; viability, T/C (second compound 1 µM, first compound 0.00316 µM): 97.7%; viability, T/C (second compound 1 µM, first compound 0.01 µM): 103%; viability, T/C [5]: 98.2%; viability, T/C [6]: 96.3%; viability, T/C (second compound 3.16 µM, first compound 0.000316 µM): 88.4%; viability, T/C (second compound 3.16 µM, first compound 0.001 µM): 97.3%; viability, T/C (second compound 3.16 µM, first compound 0.00316 µM): 93.9%; viability, T/C (second compound 3.16 µM, first compound 0.01 µM): 90.8%; viability, T/C [7]: 87.4%; viability, T/C [8]: 91.8%; viability, T/C (second compound 10 µM, first compound 0.000316 µM): 80.1%; viability, T/C (second compound 10 µM, first compound 0.001 µM): 78.5%; viability, T/C (second compound 10 µM, first compound 0.00316 µM): 82.5%; viability, T/C (second compound 10 µM, first compound 0.01 µM): 81.6%; viability, T/C [9]: 76.2%; viability, T/C [10]: 77%
